According to patent publication EP0888346B1, “CORALYNE ANALOGS AS TOPOISOMERASE INHIBITORS” (RUTGERS, THE STATE UNIVERSITY OF NEW JERSEY, priority 1996, dated 1997):
Where “and” joins values, the source holds several entries; their conditions need not be identical. Equal entries are not always repeated. Where two headings read alike, the source gives them in different places.

Key:
human topoisomerase I = target: T1, human topoisomerase I (Homo sapiens, UniProt P11387); assay: Topo I cleavage assay (plasmid YEpG DNA); assay type: biochemical; conditions: for Topo I-mediated DNA cleavage (REC, Relative Effective Concentration): concentration relative to camptothecin (CPT) = 1 producing the same cleavage on the plasmid DNA
T1 construct: 15 amino acid vector-derived fusion (pET-11a leader); made in house; host or cells: E. coli BL21(DE3)
T1 sequence (P11387 1-765): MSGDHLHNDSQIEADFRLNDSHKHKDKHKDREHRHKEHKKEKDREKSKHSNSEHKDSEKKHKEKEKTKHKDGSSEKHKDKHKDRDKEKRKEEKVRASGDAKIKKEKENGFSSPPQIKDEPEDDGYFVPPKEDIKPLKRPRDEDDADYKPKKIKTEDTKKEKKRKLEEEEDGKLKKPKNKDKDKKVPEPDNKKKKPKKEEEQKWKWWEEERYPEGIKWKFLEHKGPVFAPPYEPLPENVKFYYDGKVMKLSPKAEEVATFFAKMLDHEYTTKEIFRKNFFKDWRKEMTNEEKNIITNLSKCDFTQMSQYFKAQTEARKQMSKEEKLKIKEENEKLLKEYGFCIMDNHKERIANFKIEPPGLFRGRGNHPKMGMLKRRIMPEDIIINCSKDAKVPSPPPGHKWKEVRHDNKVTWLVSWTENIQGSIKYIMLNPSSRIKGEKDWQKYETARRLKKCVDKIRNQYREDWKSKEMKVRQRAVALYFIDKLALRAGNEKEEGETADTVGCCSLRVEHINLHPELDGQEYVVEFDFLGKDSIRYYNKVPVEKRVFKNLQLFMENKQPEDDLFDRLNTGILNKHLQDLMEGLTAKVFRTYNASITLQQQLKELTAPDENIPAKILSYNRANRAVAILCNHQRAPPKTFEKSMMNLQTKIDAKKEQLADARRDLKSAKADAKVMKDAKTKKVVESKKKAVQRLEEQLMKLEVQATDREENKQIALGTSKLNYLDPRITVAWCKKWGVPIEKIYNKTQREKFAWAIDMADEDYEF
Description: To obtain large quantity of human topoisomerase I, the human topoisomerase I cDNA was cloned into the pET-11a vector, in which transcription of the cDNA is under the control of the inducible T7 promoter (Studier et al., Methods in Enzymol., Vol. 185:60-89, San Diego: Academic Press (1990)). Briefly, a 3.4 kb DNA fragment containing the entire coding sequence of human topoisomerase I and approximately 1 kb of untranslated region downstream of the stop codon was isolated from the plasmid YCpGAL1-hTOP1 (Bjornsti et al., Cancer Res. 49:6318-6323 (1989)) by cutting at the BamHI and EcoRI sites. The vector pET-11a was cut with the same restriction enzymes, dephosphorylated and ligated to the insert in the proper reading-frame downstream of the vector cloning site. The ligation mixture was used to transform E. coli, the correct clone pET1B was isolated (see figure 2A for the map) and its identity confirmed by restriction mapping. Since the translational start in pET is positioned at an upstream NdeI site, the expressed topoisomerase I has a 15 amino acid fusion at its N-terminus. pET1B was then transformed into E. coli BL21(DE3), and, upon induction with 0.4 mM IPTG for 1 hour, the bacterial lysate was analyzed by 10 % SDS-PAGE. Expression was confirmed by Western blotting using rabbit antibodies against human topoisomerase I. Isolation of the expressed protein was done by a simple procedure. Briefly, E. coli cells were lysed by repeated sonic bursts. The sonic extract was made in 1 M NaCl and 6% polyethylene glycol (PEG) to remove nucleic acids. The PEG supernatant was chromatographed directly on a hydroxyapatite column. Expressed human DNA topoisomerase I was eluted at the 0.6 M potassium phosphate step. The eluted enzyme was dialyzed against 50% glycerol, 30 mM potassium phosphate (pH 7.0), 1 mM dithiothreitol (DTT) and 0.1 mM EDTA and stored at -20°C.
(§1) Cleavage assays for the recombinant topoisomerases I and calf thymus topoisomerases I and II were done as described (Liu et al., J. Biol. Chem. 258:15365-15370 (1983)). The plasmid YEpG DNA used for the cleavage assays was prepared and labeled at its 3'-end using the published procedures.

[1] = test system: Human lymphoblast RPMI 8402 cells; assay: MTT-microtiter plate tetrazolinium cytotoxicity assay (MTA); assay type: cell-based
Description: The results were plotted and the IC50 then measured.

[2] = test system: calf thymus topoisomerase II; assay: Topo II cleavage assay (plasmid YEpG DNA); assay type: biochemical; conditions: concentration relative to VM-26 = 1 producing the same cleavage on the plasmid DNA
Description: The plasmid pET11a and the E. coli strain BL21(DE3) used for enzyme expression were purchased from Novagen. IPTG was purchased from Sigma. The ECL system used for the Western blotting analysis of bacterial lysates was from Amersham (UK). All the restriction enzymes and Vent polymerase were from New England Biolabs. Mammalian topoisomerase II was isolated from calf thymus glands according to the published procedure (Halligan et al., J. Biol. Chem. 260:2475-2482 (1985)). The single copy yeast plasmids YCpGAL1 expressing various topoisomerase I genes in JN2-134 yeast strain were a kind gift of Dr. M-A. Bjornsti (Thomas Jefferson University, Philadelphia, PA). All bacterial and yeast media were from Difco (Detroit, MI), while cell culture media were purchased from Gibco-BRL (Gaithersburg, MD).
as §1

[3] = test system: camptothecin-resistant CPT-K5 cells; assay: MTT-microtiter plate tetrazolinium cytotoxicity assay (MTA), camptothecin-resistant cells
Protocol: The IC50 of the drugs tested were determined by the MTT-microtiter plate tetrazolinium cytotoxicity assay (MTA) (Mosmann, T., J. Immunol. Methods 65:55-63 (1983); Denizot et al., J. Immunol. Methods 89:271-277 (1986)). Human lymphoblast RPMI 8402 cells and their camptothecin-resistant CPT-K5 cells (Andoh et al., Proc. Natl. Acad. Sci., USA 84:5565-5569 (1987)) were kindly provided by Dr. Toshiwo Andoh (Aichi Cancer Center Research Institute, Nagoya, Japan). […] Cells (2000 cells/well, seeded in […] growth medium) were grown in suspension at 37°C in 5% CO2 and maintained by regular passage in RPMI medium supplemented with 10% heat inactivated fetal bovine serum, L-glutamine (2 mM), penicillin (100 U/ml), and streptomycin (0.1 mg/ml). The cells were exposed continuously for 4 days to different drug concentrations, and assayed at the end of the fourth day. Each concentration and the no drug control were repeated at least twice in 6 replica wells. The results were plotted and the IC50 then measured. The drug sensitive human epidermoid carcinoma KB 3-1 cell line and its vinblastine-selected multidrug-resistant variant KB-V1 cells (Akiyama et al., Genetics 11:117-126 (1985)) were kindly provided by Dr. Michael Gottesmann (National Cancer Institute). They were grown as monolayer cultures at 37°C in 5% CO2 and maintained by regular passage in Dulbecco's minimal essential medium supplemented with 10% heat inactivated fetal bovine serum. KB-V1 cells were maintained in the presence of […] vinblastine.

[4] = Homo sapiens, RPMI 8402, 96 h, read-out: Cytotoxicity IC50 RPMI
[5] = Homo sapiens, CPT-K5, 96 h, read-out: Cytotoxicity IC50 CPT-K5

Row | Topo I-mediated DNA cleavage (REC, Relative Effective Concentration) (human topoisomerase I) | EC (total cleavage) (human topoisomerase I; read-out: concentration giving total cleavage of DNA in the presence of topoisomerase I) | Compound | cytotoxicity against RPMI 8402 cells (in words) [1] | IC50 [1, 4] [µM] | Topo II-mediated DNA cleavage (REC, Relative Effective Concentration) [2] | IC50 [3, 5] [µM] | IC50 ([1]; rpmi 8402 cells, 96 h) [µM] | IC50 ([3]; cpt-k5 cells, 96 h) [µM] | IC50 ([1]; Homo sapiens, RPMI 8402, 96 h, 4 days of continuous drug exposure, read-out: Cytotoxicity IC50 RPMI) [µM]
1 | >1000 | – | COc1ccc(Cc2nccc3c4c(ccc23)OCO4)cc1OC [Compound 9c, 5,6-Methylenedioxy-1-(3,4-dimethoxybenzyl)isoquinoline] | appreciable cytotoxicity | 9.3 | >1000 | 15 | – | – | –
2 | >1000 | – | 8-Methyl-3,4,10,11-tetramethoxydibenzo[a,g]quinolizinium acetosulfate [Compound 2b] | – | – | 100 | – | 0.4 | 2 | –
3 | 10 | – | COc1cc2cc3c4ccc5c(c4cc[n+]3c(C)c2cc1OC)OCO5 [Compound 2c, 8-Methyl-3,4-methylenedioxy-10,11-dimethoxydibenzo[a,g]quinolizinium acetosulfate] | – | 2 | 10 | 41 | – | – | –
4 | >1000 | – | 6,7-Dimethoxy-1, 2-dimethyl-3-(3, 4-dimethoxyphenyl)isoquinolinium methosulfate [Compound 14a] | – | – | >1000 | – | 43 | 39 | –
5 | >1000 | – | Cc1nc(-c2ccc(O)c(O)c2)cc2cc(O)c(O)cc12 [Compound 13, 6,7-Dihydroxy-1-methyl-3-(3,4-dihydroxyphenyl)isoquinoline] | appreciable cytotoxicity | 7.1 | >1000 | 99 | – | – | –
6 | >1000 | – | COc1cc2cc3c4ccc(OC)c(OC)c4cc[n+]3cc2cc1OC.[Cl-] [Compound 10b, 3,4,10,11-Tetramethoxydibenzo[a,g]quinolizinium chloride] | – | 2.6 | 100 | 5.2 | – | – | –
7 | 5 | – | COc1cc2c(cc1OC)-c1cc3cc(OC)c(OC)cc3c(C)[n+]1CC2 [Compound 7a, 5,6-Dihydro-8-methyl-2,3,10,11-tetramethoxydibenzo[a,g]quinolizinium acetosulfate] | – | 5.9 | >1000 | > 20 | – | – | –

Continued, compound first:

Row | Compound | Topo I-mediated DNA cleavage (REC, Relative Effective Concentration) (human topoisomerase I) | EC (total cleavage) (human topoisomerase I; read-out: concentration giving total cleavage of DNA in the presence of topoisomerase I) | cytotoxicity against RPMI 8402 cells (in words) [1] | IC50 [1, 4] [µM] | Topo II-mediated DNA cleavage (REC, Relative Effective Concentration) [2] | IC50 [3, 5] [µM] | IC50 ([1]; rpmi 8402 cells, 96 h) [µM] | IC50 ([3]; cpt-k5 cells, 96 h) [µM] | IC50 ([1]; Homo sapiens, RPMI 8402, 96 h, 4 days of continuous drug exposure, read-out: Cytotoxicity IC50 RPMI) [µM]
8 | COc1cc2cc3[n+](cc2cc1OC)CCc1c-3ccc2c1OCO2.[Cl-] [Compound 8c, 5,6-Dihydro-3,4-methylenedioxy-10,11-dimethoxydibenzo[a,g]quinolizinium chloride] | 1 | 0.27 µM and 0.1 µg/mL | – | 8.1 | 50 | 27 | – | – | –
9 | COc1ccc(Cc2nccc3cc(OC)c(OC)cc23)cc1OC [Compound 9a] | >1000 | – | – | – | 1000 | 29 | – | – | 24
10 | 6,7-Dimethoxy-1,2-dimethyl-3-(3, 4-methylenedioxyphenyl)isoquinolinium methosulfate [Compound 14b] | 1000 | – | appreciable cytotoxicity | – | 1000 | – | 6.7 | 11 | –
11 | COc1cc2cc3c4cc(OC)c(OC)cc4cc[n+]3cc2cc1OC.[Cl-] [Compound 10a, 2,3,10,11-Tetramethoxydibenzo[a,g]quinolizinium chloride] | 1000 | – | – | 13 | 10 | > 32 | – | – | –
12 | COc1ccc(-c2cc3cc(OC)c(OC)cc3c(C)n2)cc1OC [Compound 12a, 6,7-Dimethoxy-1-methyl-3-(3,4-dimethoxyphenyl)isoquinoline] | >1000 | – | – | 13 | – | 24 | – | – | –
13 | COc1ccc(Cc2nccc3c(OC)c(OC)ccc23)cc1OC.Cl [Compound 9b, 5,6-Dimethoxy-1-(3,4-dimethoxybenzyl)isoquinoline hydrochloride] | >1000 | – | – | 15 | 1000 | 15 | – | – | –
